Test results taken from the NIST ThermoML archive (doi:10.1021/je060411g).

Assay: molar heat capacity at constant pressure
Settings: 101.33 kPa

CCCC(C)O (stereo unspecified) [pentan-2-ol]
Settings	molar heat capacity at constant pressure [J/K/mol]
79.67 K, Glass	63.18
80.46 K, Glass	63.33
82.3 K, Glass	64.14
84.42 K, Glass	67.58
85.14 K, Glass	66.47
85.32 K, Glass	67.84
86.75 K, Glass	68.64
87.94 K, Glass	69.06
88.7 K, Glass	70.03
90.63 K, Glass	71.1
90.73 K, Glass	70.94
92.44 K, Glass	69.53
92.56 K, Glass	72.26
93.14 K, Glass	65.87
93.54 K, Glass	72.61
94.47 K, Glass	69.28
94.5 K, Glass	73.35
95.82 K, Glass	74.84
96.37 K, Glass	74.28
96.39 K, Glass	69.82
96.44 K, Glass	74.4
96.51 K, Glass	73.84
97.85 K, Glass	74.9
98.3 K, Glass	70.93
98.39 K, Glass	75.87
99.21 K, Glass	76.42
99.81 K, Glass	76.63
100.21 K, Glass	72.31
100.33 K, Glass	77.32
101.76 K, Glass	76.89
102.06 K, Glass	77.9
102.12 K, Glass	72.26
102.28 K, Glass	78.12
103.71 K, Glass	77.71
104.04 K, Glass	72.83
104.24 K, Glass	78.97
104.91 K, Glass	79.34
105.66 K, Glass	79.19
105.95 K, Glass	74.19
106.19 K, Glass	80.14
107.61 K, Glass	80.61
107.78 K, Glass	81.22
107.87 K, Glass	75.02
108.15 K, Glass	81.83
109.56 K, Glass	81.6
109.78 K, Glass	76.24
110.11 K, Glass	83.03
110.65 K, Glass	82.72
111.51 K, Glass	82.56
111.7 K, Glass	77.13
112.08 K, Glass	84.03
113.47 K, Glass	83.55
113.52 K, Glass	84.21
113.62 K, Glass	77.89
114.05 K, Glass	85.23
115.43 K, Glass	84.36
115.53 K, Glass	78.83
116.02 K, Glass	86.13
116.41 K, Glass	85.6
117.39 K, Glass	85.19
117.45 K, Glass	79.39
117.99 K, Glass	86.99
119.31 K, Glass	86.83
119.36 K, Glass	85.74
119.37 K, Glass	80.16
119.97 K, Glass	87.03
121.3 K, Glass	80.85
121.33 K, Glass	86.41
121.95 K, Glass	88.36
122.2 K, Glass	88.5
123.23 K, Glass	82.6
123.29 K, Glass	88
123.94 K, Glass	89.95
125.11 K, Glass	91.4
125.15 K, Glass	84.47
125.26 K, Glass	89.98
125.92 K, Glass	92.63
127.07 K, Glass	88.92
127.21 K, Glass	95.14
134.18 K, Liquid	138.36
134.47 K, Liquid	145.14
135.24 K, Liquid	146.4
136 K, Liquid	146.52
136.05 K, Liquid	138.34
136.39 K, Liquid	145.03
137.22 K, Liquid	146.29
137.97 K, Liquid	138.35
138.36 K, Liquid	145.17
138.84 K, Liquid	146.59
139.21 K, Liquid	146.22
139.9 K, Liquid	138.69
140.33 K, Liquid	145.48
141.2 K, Liquid	146.34
141.77 K, Liquid	146.74
141.83 K, Liquid	139.02
142.3 K, Liquid	145.81
143.19 K, Liquid	146.48
143.77 K, Liquid	139.32
144.73 K, Liquid	146.91
145.18 K, Liquid	146.45
147.18 K, Liquid	146.59
147.68 K, Liquid	147.17
149.17 K, Liquid	146.66
150.63 K, Liquid	147.42
151.16 K, Liquid	146.74
153.16 K, Liquid	146.86
153.58 K, Liquid	147.65
155.16 K, Liquid	147.04
156.54 K, Liquid	148.06
157.16 K, Liquid	147.26
159.16 K, Liquid	147.41
159.5 K, Liquid	148.35
161.15 K, Liquid	147.59
162.46 K, Liquid	148.75
163.15 K, Liquid	147.87
165.15 K, Liquid	148.07
165.42 K, Liquid	149.14
167.15 K, Liquid	148.38
168.38 K, Liquid	149.64
169.15 K, Liquid	148.62
171.15 K, Liquid	148.98
171.34 K, Liquid	150.12
173.15 K, Liquid	149.17
174.31 K, Liquid	150.62
175.15 K, Liquid	149.61
177.14 K, Liquid	150.03
177.27 K, Liquid	151.24
179.14 K, Liquid	150.37
180.22 K, Liquid	151.84
181.14 K, Liquid	150.83
183.13 K, Liquid	151.22
183.15 K, Liquid	152.41
185.13 K, Liquid	151.66
186.06 K, Liquid	153.18
187.13 K, Liquid	152.22
188.97 K, Liquid	153.85
189.12 K, Liquid	152.69
191.11 K, Liquid	153.28
191.86 K, Liquid	154.61
193.1 K, Liquid	153.79
194.73 K, Liquid	155.46
195.09 K, Liquid	154.43
197.08 K, Liquid	155.04
197.6 K, Liquid	156.28
199.07 K, Liquid	155.64
200.45 K, Liquid	157.17
201.05 K, Liquid	156.37
203.04 K, Liquid	157.14
203.28 K, Liquid	158.12
205.02 K, Liquid	157.9
206.11 K, Liquid	159.16
207 K, Liquid	158.71
208.92 K, Liquid	160.23
208.98 K, Liquid	159.59
210.96 K, Liquid	160.43
211.71 K, Liquid	161.38
212.93 K, Liquid	161.43
214.5 K, Liquid	162.6
214.9 K, Liquid	162.36
216.87 K, Liquid	163.53
217.27 K, Liquid	163.98
218.83 K, Liquid	164.58
220.03 K, Liquid	165.38
220.79 K, Liquid	165.86
222.74 K, Liquid	167.19
222.77 K, Liquid	166.74
224.69 K, Liquid	168.3
225.5 K, Liquid	168.21
226.64 K, Liquid	169.58
228.21 K, Liquid	169.75
228.58 K, Liquid	170.97
230.52 K, Liquid	172.4
230.92 K, Liquid	171.38
232.46 K, Liquid	173.26
233.61 K, Liquid	173.02
234.41 K, Liquid	174.28
236.28 K, Liquid	174.82
236.37 K, Liquid	175.25
238.35 K, Liquid	176.25
238.94 K, Liquid	176.57
240.33 K, Liquid	177.32
241.59 K, Liquid	178.24
242.31 K, Liquid	178.65
244.22 K, Liquid	179.98
244.29 K, Liquid	180.19
246.27 K, Liquid	181.71
246.84 K, Liquid	181.91
248.24 K, Liquid	183.24
249.45 K, Liquid	183.85
250.22 K, Liquid	184.81
252.04 K, Liquid	185.96
252.19 K, Liquid	186.49
254.17 K, Liquid	187.53
254.62 K, Liquid	187.26
256.15 K, Liquid	189.21
257.2 K, Liquid	189.4
258.13 K, Liquid	190.9
259.75 K, Liquid	191.63
260.11 K, Liquid	192.75
262.08 K, Liquid	194.51
262.3 K, Liquid	193.87
264.06 K, Liquid	196.4
264.83 K, Liquid	196.18
266.04 K, Liquid	198.15
267.34 K, Liquid	198.56
268.01 K, Liquid	200.17
269.84 K, Liquid	201.01
269.99 K, Liquid	202.16
271.96 K, Liquid	204.25
272.33 K, Liquid	203.73
273.94 K, Liquid	206.27
274.8 K, Liquid	206.33
275.91 K, Liquid	208.32
277.26 K, Liquid	208.61
277.88 K, Liquid	210.5
279.7 K, Liquid	211.18
279.86 K, Liquid	212.62
281.83 K, Liquid	214.76
282.13 K, Liquid	213.77
283.81 K, Liquid	216.99
284.54 K, Liquid	216.55
285.79 K, Liquid	219.38
286.94 K, Liquid	219.25
287.77 K, Liquid	221.67
289.33 K, Liquid	222.07
289.75 K, Liquid	224.09
291.7 K, Liquid	224.87
291.73 K, Liquid	226.3
293.71 K, Liquid	228.63
294.06 K, Liquid	227.43
295.69 K, Liquid	231.18
296.41 K, Liquid	230.08
297.66 K, Liquid	233.65
298.75 K, Liquid	233
299.65 K, Liquid	235.81
301.07 K, Liquid	235.62
